Laboratory results reported in US20240180895A1, “USE OF KAPPA OPIOID RECEPTOR AGONISTS TO TREAT CARDIOVASCULAR DISEASE” (Board of Supervisors of Louisiana State University and …, priority 2021, published 2024).

Legend:
Assay type in all cases: in vivo, rat
Sprague-Dawley rats [1] = assay: Prevention of diuretic resistance to twice daily furosemide by nalfurafine, 5-hour urine (FIG. 15)
Procedure: (§1) Male Sprague-Dawley rats were placed in individual metabolic cages in a room with 12-hour automatic light on/off control and allowed tap water and rodent chow ad libitum. Over the next two (2) days (control period), rats were administered vehicle (5% NaOH; 1 M PBS, IP) in the morning (9:00 am) and afternoon (2:00 pm) of each day, with urine collected for 5-hours starting immediately after the first injection. […] This was repeated for 4 consecutive days (experimental period).

[2] = tested on: conscious Sprague-Dawley rats; assay: Acute cardiovascular and renal excretory studies, i.v. bolus (Example 3)
Procedure: (§2) Animals: Male Sprague-Dawley (SD) rats (Envigo Labs, Indianapolis, IN), 300-350 g, were individually housed under a 12 h light-dark cycle and allowed tap water and standard rodent diet ad libitum. Rats were randomly assigned to experimental groups for all acute and subacute studies. All procedures were approved by the Louisiana State University Health Sciences Center Institutional Animal Care and Use Committee and conducted in accordance with the National Institutes of Health guidelines for the care and use of animals.
Surgical Procedures: Aseptic technique was followed for all surgical procedures. On the morning of the experiment, rats were anesthetized with and maintained under inhaled 2% isoflurane, and polyethylene catheters (PE50; BD Diagnostics, Sparks, MD) were surgically inserted into the left femoral vein and left femoral artery for the infusion of saline and/or drug administration and the recording of arterial blood pressure, respectively. Subsequently, a suprapubic incision was made and a flanged polyethylene catheter (PE240; BD Diagnostics, Sparks, MD) was inserted into the bladder, exteriorized, and sutured to surrounding muscle and skin. Rats were then placed in an elevated restrainer (Krowicki & Kapusta, 2011) to recover from surgery and allow collection of urine. When acute experimental protocols were completed, rats were anesthetized via isoflurane and decapitated.
Acute Cardiovascular and Renal Excretory Studies: Following surgery, rats received an i.v. infusion of isotonic saline at 55 μL min^−1 throughout the duration of the experiment and were allowed 4-6 hours to recover from anesthesia. Arterial catheters were connected to a pressure transducer (MLT0670, ADInstruments, Sydney, Australia), which was connected to Powerlab 8/30 (ADInstruments) for recording of pulsatile and mean arterial blood pressure (MAP) and heart rate (HR). Blood pressure and HR were visualized using LabChart software (v8.1.5; ADInstruments). […] Following this control period, drug or vehicle (isotonic saline) was injected into the femoral vein catheter at a volume of 2 cc kg^−1, and urines were collected in 10 minute periods for a span of 90 minutes. […] All groups are n=6. Urine volume was measured gravimetrically, urine sodium and potassium concentrations were measured using flame photometry (model 943; Instrumentation Laboratories, Lexington, MA), and urine osmolality was measured using a vapor pressure osmometer (model 5600; WESCOR, Logan, UT).
(§3) Experimental Design and Analysis: All results are expressed as mean±SEM. […] Means between groups for total urine output, Na^+ concentration, K^+ concentration, and urine osmolality were compared using a Student's t-test. Statistical significance was characterized as P<0.05. Statistics were carried out using Prism 7.05 software (GraphPad Software, Inc., San Diego, CA) and IBM SPSS Statistics (IBM, Armonk, NY).

Sprague-Dawley rats [3] = assay: Reversal of oral furosemide diuretic resistance by oral nalfurafine (FIG. 17)
Procedure: as §1, with “PBS) orally (gavage)” for “PBS, IP)”, “and” for “of each day, with”, “urine was” for “urine”, “5-hours” for “5-hours starting immediately”, “oral treatment.” for “injection.”, “8” for “4”

[4] = tested on: Sprague-Dawley rats placed on a low-salt diet; assay: Reversal of furosemide diuretic resistance by difelikefalin in rats on a low sodium diet (FIG. 16); conditions: low sodium diet
Procedure: Male Sprague-Dawley rats were placed in individual metabolic cages in a room with 12-hour automatic light on/off control and allowed tap water. For these studies, rats were placed on a low-salt diet (0.1% NaCl) for one week prior to and throughout the experimental protocol. […] For the first two (2) days (control period), rats were administered vehicle (5% NaOH; 1 M PBS, IP) in the morning (9:00 am) and urine was then collected for 5-hours.

[5] = tested on: conscious Sprague-Dawley rats; assay: Metabolic cage renal excretory studies, oral gavage (Example 3); conditions: oral gavage, mean±SEM
Procedure: as §2
Metabolic Cage Renal Excretory Studies: Rats were placed in metabolic cages (model 18cv, Fenco, Cataumet, MA) for 2 hours to allow for acclimation and voiding of residual urine. Following the acclimation period, rats were volume loaded with 20 cc kg^−1 drug or vehicle (isotonic saline) via oral gavage. Urines were collected each hour over a 5-hour period. Following completion of the study rats were returned to their home cages. […] These points are marked on the figures with number of measurements in parentheses.
as §3

Sprague-Dawley rats [6] = assay: Prevention of diuretic resistance to once daily furosemide by difelikefalin, 24-hour urine (FIG. 14)
Procedure: Male Sprague-Dawley rats were placed in individual metabolic cages in a room with 12-hour automatic light on/off control and allowed tap water and rodent chow ad libitum. Over the next two (2) days (control period), rats were administered vehicle (5% NaOH; 1 M PBS, IP) in the morning (9:00 am) and urine was then collected for 24-hours.

[7] = i.v. bolus, cumulative 90-min urine, same doses, mean±SEM
[8] = cumulative 5-hour urine, same doses

SMILES: NS(=O)(=O)c1cc(C(=O)O)c(NCc2ccco2)cc1Cl [furosemide]
- Day of peak diuresis (Sprague-Dawley rats [1]; twice daily IP for 4 days): 1 days
- 5-hour urine output on day 4 (Sprague-Dawley rats [1]; twice daily IP, furosemide 20 mg/kg alone or with nalfurafine 10 μg/kg, day 4): 7.41 ± 1.40 mL
- 5-hour urine output at peak diuresis (Sprague-Dawley rats [1]; twice daily IP, furosemide 20 mg/kg alone or with nalfurafine 10 μg/kg, mean±SEM): 13.99 ± 0.72 mL
- Duration of the increase in urine flow rate above control ([2]; after i.v. bolus): 30 min
- Time of peak diuresis (urine flow rate) ([2]; after i.v. bolus): 10 min
- Effect on heart rate (HR) ([2]; i.v. bolus, 90-min protocol): did not produce any change in MAP or HR
- Effect on MAP ([2]; i.v. bolus, diuretic alone, 90-min protocol): did not produce any change in MAP or HR
- Potassium concentration [K+] in cumulative urine [2, 7]: 14.51±0.63 μeq ml^−1
- Sodium concentration [Na+] in cumulative urine [2, 7]: 138±1.58 μeq ml^−1
- Urine osmolality [2, 7]: 379.8 ± 15.33 mmol/kg
- Total urine output ([2]; i.v. bolus, cumulative urine of 90-min protocol, nalfurafine 5 μg kg−1, furosemide 7.5 mg kg−1, HCTZ 2.5 mg kg−1, amiloride 2 mg kg−1, mean±SEM, n=6): 9.20 ± 0.75 mL
- 5-hour urine output at peak diuresis (Sprague-Dawley rats [3]; furosemide (20 mg/kg per method) orally twice per day, day 1): 13.97 ± 0.64 mL
- 5-hour urine output on day 6 (Sprague-Dawley rats [3]; furosemide alone orally twice per day, day 6): 5.61 ± 1.14 mL
- Day of peak diuresis (Sprague-Dawley rats [3]; furosemide alone, oral): 1 days
- 5-hour urine output on day 12 ([4]; furosemide 10 mg/kg IP once daily alone, day 12): 4.43 ± 0.54 mL
- 5-hour urine output at peak diuresis ([4]; furosemide 10 mg/kg IP once daily, day 1): 9.86 ± 0.76 mL
- Day of peak diuresis ([4]; furosemide alone): 1 days
- Potassium concentration [K+] in cumulative urine [5, 8]: 23.94±1.02 μeq ml^−1
- Sodium concentration [Na+] in cumulative urine [5, 8]: 96.76±2.66 μeq ml^−1
- Total urine output ([5]; cumulative urine of 5-hour protocol, nalfurafine 150 μg kg−1, furosemide 50 mg kg−1, HCTZ 5 mg kg−1, amiloride 5 mg kg−1, n=6): 18.28 ± 0.67 mL
- Day of peak diuresis (Sprague-Dawley rats [6]; once daily IP for 10 days): 2 days
- 24-hour urine output on day 10 (Sprague-Dawley rats [6]; once daily IP, furosemide 10 mg/kg alone or with difelikefalin 20 μg/kg, day 10): 5.57 ± 0.63 mL
- 24-hour urine output at peak diuresis (Sprague-Dawley rats [6]; once daily IP, furosemide 10 mg/kg alone or with difelikefalin 20 μg/kg, mean±SEM): 14.98 ± 1.85 mL
